Results published in US20190046467A1, “COMPOSITIONS AND METHODS FOR INHIBITING BIOFILM-FORMING BACTERIA” (priority 2015, published 2019).

Columns and labels:
[1] = tested on: 509.5=PAO509 expressing triABC mutant biofilms; experiment: MBEC biofilm killing assay (BacTiter-Glo), mutant 509.5; format: cell-based, Pseudomonas aeruginosa; conditions: triclosan 100 μM alone or with tobramycin 250 μg/mL; 6 hours treatment
Description: (§1) The MBEC™ Assay is a high throughput screening assay that allows testing of the efficacy of antimicrobials against biofilms. The MBEC™ Assay's Biofilm Inoculator (referred above as “the lid”) consists of a plastic lid with 96 pegs and a corresponding base with 96 individual wells. Biofilms are grown on the pegs under batch conditions (no flow of nutrients into or out of an individual well) with gentle mixing. The established biofilm is then transferred to a new 96 well plate for antimicrobial efficacy testing. The assay design allows for the evaluation of different of microorganisms, simultaneous testing of multiple biocides at multiple concentrations with replicate samples, making it an efficient screening tool. (Innovotech website http://www.innovotech.ca/products_mbec.php)) […]
(§2) Two milliliter overnight cultures of Pseudomonas aeruginosa mutants were grown in MHII medium shaking at 220 rpm at 37° C. […] Cell culture was diluted to a 0.001 absorbance at 600 nm in 10% Mueller-Hinton II medium (MHII) and used to inoculate the bottom of MBEC™ assay plates (Innovotech, Edmonton, Canada). […] Following a 5 minute rinse in MHII, lids were exposed to BacTiter-Glo™ (Promega) and luminescence read in a microtiter plate reader (EnVision® Multilabel Plate Reader, Perkin Elmer, Waltham, USA). […]

[2] = tested on: Pseudomonas aeruginosa PAO1 fabI mutant biofilms; experiment: MBEC biofilm killing assay (BacTiter-Glo), fabI mutants; format: cell-based; conditions: triclosan 100 μM alone; 6 hours treatment
Description: as §1
as §2, with “aeruginosa fabI” for “aeruginosa”

[3] = tested on: 509=PAO1_Δ(mexAB-oprM)_Δ(mexCD-oprJ)_Δ(mexEF-oprN)_Δ(mexJK)_Δ(mexXY) mutant biofilms; experiment: MBEC biofilm killing assay (BacTiter-Glo), efflux pump deletion mutant 509; format: cell-based, Pseudomonas aeruginosa; conditions: triclosan 100 μM alone or with tobramycin 250 μg/mL; 6 hours treatment
Description: as §1, §2

Q: Which results are given for `Oc1cc(Cl)ccc1Oc1ccc(Cl)cc1Cl` [triclosan, Triclosan]?
A: percentage of 509.5 mutant biofilms killed [1]: around 50%; susceptibility of fabI mutant biofilms [2]: triclosan resistance; susceptibility of 509 mutant biofilms [3]: susceptible
